Measured values published in patent US20180084784A1, “METHODS AND COMPOSITIONS FOR CONTROLLING FUNGUS AND FUNGAL SPORES AND IMPROVING PLANT QUALITY” (BAYER CROPSCIENCE LP, priority 2016, published 2018).
Read-outs that look alike come from different tables or passages of the source.

Legend:
[1] = system: Pythium aphanidermatum zoospores; assay: Example 3: hydrogen peroxide alone and hydrolase enzyme alone, 12 days incubation; format: cell-based
Protocol: Tests were conducted on fescue leaf blades. […] Two agar plugs containing Pythium aphanidermatum mycelium were placed in the jar containing the fescue leaves and allowed to incubate for 12 days. Ten jars were used in total. […] Each of these jars was subject to the following hydrogen peroxide treatments: […] The remaining five jars were used for testing the effect of hydrolase enzyme alone. Each of these jars was subject to the following enzyme treatments: […] (2) 0.016% enzyme v/v concentration; (3) 0.0016% enzyme v/v concentration; […]

[2] = system: Pythium aphanidermatum zoospores; assay: Example 5: enzyme and hydrogen peroxide, alone and combined; format: cell-based
Protocol: (§1) Tests were conducted on fescue leaf blades. […] Two agar plugs containing Pythium aphanidermatum mycelium were placed in the jar containing the fescue leaves and allowed to incubate for 7 days.
(§2) A 1.0 ml aliquot was removed from each treatment and streaked onto potato dextrose agar.

[3] = system: Pythium aphanidermatum zoospores; assay: Example 6: enzyme and hydrogen peroxide, alone and combined; format: cell-based
Protocol: as §1, §2

[4] = system: Pythium aphanidermatum zoospores; assay: Example 7: enzyme and hydrogen peroxide, confirmation of Example 6
Protocol: Tests were conducted on fescue leaf blades. Five one-inch long fescue leaf blades were placed in 100 ml water in a 250 ml jar and sterilized for 2 consecutive days for 20 min. Two agar plugs containing Pythium aphanidermatum mycelium were placed in the jar containing the fescue leaves and allowed to incubate for 7 days.
A 1.0 ml aliquot was removed from each treatment and streaked onto potato dextrose agar. […] After three days the plates were examined for Pythium growth.

[5] = system: Pythium aphanidermatum zoospores
Protocol: Tests were conducted on fescue leaf blades. […] Two agar plugs containing Pythium aphanidermatum mycelium were placed in the jar containing the fescue leaves and allowed to incubate for 5 days.
A 1.0 ml aliquot was removed from each treatment and streaked onto potato dextrose agar. […] After five days the plates were examined for Pythium growth.

[6] = system: Pythium aphanidermatum zoospores; assay: Example 4: hydrogen peroxide alone and enzyme alone, 8 days incubation; format: cell-based
Protocol: Tests were conducted on fescue leaf blades. […] Eleven jars were used in total. […] The remaining six jars were used for testing the effect of hydrolase enzyme alone. Each of these jars was subject to the following enzyme treatments: (1) untreated; (2) 0.16% enzyme v/v concentration; (3) 0.088% enzyme v/v concentration; […] (5) 0.0142% enzyme v/v concentration; and (6) 0.0124% enzyme v/v concentration.

[7] = system: Pythium aphanidermatum zoospores; assay: Example 8: enzyme and hydrogen peroxide, alone and combined; format: cell-based
Protocol: as §1, §2

[8] = system: Pythium aphanidermatum zoospores; assay: Example 9: enzyme and hydrogen peroxide, alone and combined; format: cell-based
Protocol: as §1
A 1.0 mL aliquot was removed from each treatment and streaked onto potato dextrose agar.

[9] = 0.003% hydrogen peroxide v/v concentration
[10] = 0.006% hydrogen peroxide v/v concentration
[11] = 0.012% hydrogen peroxide v/v concentration
[12] = 0.03% hydrogen peroxide v/v concentration
[13] = 0.014% hydrogen peroxide v/v concentration
[14] = 0.016% hydrogen peroxide v/v concentration
[15] = 0.018% hydrogen peroxide v/v concentration
[16] = 0.0003% hydrogen peroxide v/v concentration
[17] = 0.02% hydrogen peroxide v/v concentration

For `OO` [hydrogen peroxide], the “% of Potato Dextrose Sugar Agar Plate Covered with Pythium” value [1, 9] was 100%, the “Number of plates (4 reps) with Pythium growth after 3 days” value (from here on “Number of plates (4 reps) … after 3 days”) [1, 9] was 4 and the “% of Potato Dextrose Sugar Agar Plate Covered with Pythium” value [1, 10] was 50-90%. The “Number of plates (4 reps) … after 3 days” value [1, 10] was 4, the “% of Potato Dextrose Sugar Agar Plate Covered with Pythium” value [1, 11] was under 50% and the “Number of plates (4 reps) … after 3 days” value [1, 11] was 4. The “% of Potato Dextrose Sugar Agar Plate Covered with Pythium” value [1, 12] was 0%, the “Number of plates (4 reps) … after 3 days” value [1, 12] was 0 and the “Pythium growth on plates” value ([1]; all tested concentrations of hydrogen peroxide except 0.03% v/v) was “grew on all plates”. The “% of Potato Dextrose Sugar Agar Plate Covered with Pythium” value [2, 9] was 100%, the “Number of plates (4 reps) … after 3 days” value [2, 9] was 4 and the “% of Potato Dextrose Sugar Agar Plate Covered with Pythium” value [2, 13] was 71.25%. The “Number of plates (4 reps) … after 3 days” value [2, 13] was 4, the “% of Potato Dextrose Sugar Agar Plate Covered with Pythium” value [3, 13] was 17.5% and the “Number of plates (4 reps) … after 3 days” value [3, 13] was 1. For the same compound, the “% of Potato Dextrose Sugar Agar Plate Covered with Pythium” value [3, 14] was 10%, the “Number of plates (4 reps) … after 3 days” value [3, 14] was 1 and the “% of Potato Dextrose Sugar Agar Plate Covered with Pythium” value [3, 15] was 17.5%. The “Number of plates (4 reps) … after 3 days” value [3, 15] was 1, the “% of Potato Dextrose Sugar Agar Plate Covered with Pythium” value [4, 13] was 72.5% and the “Number of plates (4 reps) … after 3 days” value [4, 13] was 4. For the same compound, the “% of Potato Dextrose Sugar Agar Plate Covered with Pythium” value [4, 14] was 38.8%, the “Number of plates (4 reps) … after 3 days” value [4, 14] was 4 and the “% of Potato Dextrose Sugar Agar Plate Covered with Pythium” value [4, 15] was 85.8%. For the same compound, the “Number of plates (4 reps) … after 3 days” value [4, 15] was 4, the “% Reduction of Pythium” value [5, 16] was 0% and the “Number of plates (4 reps) with Pythium growth after 5 days” value (“Number of plates (4 reps) … after 5 days” below) [5, 16] was 4. For the same compound, the “% Reduction of Pythium” value [5, 9] was 0%, the “Number of plates (4 reps) … after 5 days” value [5, 9] was 4 and the “% Reduction of Pythium” value [5, 12] was 75%. For the same compound, the “Number of plates (4 reps) … after 5 days” value [5, 12] was 1, the “% Reduction of Pythium” value ([5]; 0.3% hydrogen peroxide v/v concentration) was 100% and the “% Reduction of Pythium” value ([5]; 1.5% hydrogen peroxide v/v concentration) was 100%. For the same compound, the “% of Potato Dextrose Sugar Agar Plate Covered with Pythium” value [6, 11] was 36.25%, the “% of Potato Dextrose Sugar Agar Plate Covered with Pythium” value [6, 13] was 60% and the “% of Potato Dextrose Sugar Agar Plate Covered with Pythium” value [6, 14] was 0%. The “% of Potato Dextrose Sugar Agar Plate Covered with Pythium” value [6, 15] was 0%, the “% of Potato Dextrose Sugar Agar Plate Covered with Pythium” value [7, 13] was 90% and the “Number of plates (4 reps) … after 3 days” value [7, 13] was 4. For the same compound, the “% of Potato Dextrose Sugar Agar Plate Covered with Pythium” value [7, 17] was 56.3%, the “Number of plates (4 reps) … after 3 days” value [7, 17] was 4 and the “% of Potato Dextrose Sugar Agar Plate Covered with Pythium” value [8, 13] was 100%. The “Number of plates (4 reps) … after 3 days” value [8, 13] was 4, the “% of Potato Dextrose Sugar Agar Plate Covered with Pythium” value [8, 14] was 63.75% and the “Number of plates (4 reps) … after 3 days” value [8, 14] was 4. The “% of Potato Dextrose Sugar Agar Plate Covered with Pythium” value [8, 15] was 91.25%, the “Number of plates (4 reps) … after 3 days” value [8, 15] was 4 and the “% of Potato Dextrose Sugar Agar Plate Covered with Pythium” value [8, 17] was 25%. The “Number of plates (4 reps) … after 3 days” value [8, 17] was 4.
